Legend:
[1] = Cytotoxicity against HDF cells assessed as cell viability at 100 uM by MTT assay; type: cell-based; conditions: human, read-out: Activity
[2] = biological target: T1, Prostaglandin G/H synthase 1 (Ovis aries, UniProt P05979); test: Inhibition of ovine COX1
T1 sequence (P05979 whole entry): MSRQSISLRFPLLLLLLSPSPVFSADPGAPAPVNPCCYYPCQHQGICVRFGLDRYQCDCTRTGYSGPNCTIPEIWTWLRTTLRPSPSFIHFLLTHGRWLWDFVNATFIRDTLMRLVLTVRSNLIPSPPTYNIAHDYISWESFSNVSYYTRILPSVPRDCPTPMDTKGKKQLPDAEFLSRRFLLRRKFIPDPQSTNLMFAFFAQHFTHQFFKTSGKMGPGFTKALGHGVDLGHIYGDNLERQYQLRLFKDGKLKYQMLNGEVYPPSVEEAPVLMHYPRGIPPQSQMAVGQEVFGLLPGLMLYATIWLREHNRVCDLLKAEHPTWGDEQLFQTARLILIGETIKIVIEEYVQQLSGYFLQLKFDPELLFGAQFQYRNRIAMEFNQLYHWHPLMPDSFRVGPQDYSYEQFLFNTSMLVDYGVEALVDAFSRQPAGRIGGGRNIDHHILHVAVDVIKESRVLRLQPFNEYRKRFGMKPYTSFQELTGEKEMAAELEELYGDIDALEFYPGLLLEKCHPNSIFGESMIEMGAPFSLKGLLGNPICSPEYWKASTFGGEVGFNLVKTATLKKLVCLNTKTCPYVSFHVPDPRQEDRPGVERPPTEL

Row | SMILES | IC50 [2] [µM] | viability at 100 µM [1] [%]
1 | NC(=S)N/N=C\c1cn(-c2ccccc2)nc1-c1ccc(Br)cc1 | 60.3 | 57.6
2 | COc1ccc(-c2nn(-c3ccccc3)cc2/C=N\NC(N)=S)cc1 | 62.3 | 63.4
3 | S=C(N/N=C\c1cn(-c2ccccc2)nc1-c1ccc(Br)cc1)Nc1ccccc1 | 65.7 | 58.7
4 | COc1ccc(-c2nn(-c3ccccc3)cc2/C=N\NC(=S)Nc2ccccc2)cc1 | 42.3 | 52.6
5 | O=C1CS/C(=N/N=C\c2cn(-c3ccccc3)nc2-c2ccc(Br)cc2)N1c1ccccc1 | 60.5 | 57.4
6 | COc1ccc(-c2nn(-c3ccccc3)cc2/C=N\N=C2\SCC(=O)N2c2ccccc2)cc1 | 62.3 | 63.4
7 | CC(=O)NC1=NN(C(C)=O)C(c2cn(-c3ccccc3)nc2-c2ccc(Cl)cc2)S1 (stereo unspecified) | 70.3 | 57.7
8 | CC(=O)NC1=NN(C(C)=O)C(c2cn(-c3ccccc3)nc2-c2ccc(Br)cc2)S1 (stereo unspecified) | 64.7 | 51.6
9 | COc1ccc(-c2nn(-c3ccccc3)cc2C2SC(NC(C)=O)=NN2C(C)=O)cc1 (stereo unspecified) | 80.3 | 56.7
10 | CC(=O)N(C1=NN(C(C)=O)C(c2cn(-c3ccccc3)nc2-c2ccc(Cl)cc2)S1)c1ccccc1 (stereo unspecified) | 70.3 | 61.7
11 | CC(=O)N(C1=NN(C(C)=O)C(c2cn(-c3ccccc3)nc2-c2ccc(Br)cc2)S1)c1ccccc1 (stereo unspecified) | 72.7 | 51.4
12 | COc1ccc(-c2nn(-c3ccccc3)cc2C2SC(N(C(C)=O)c3ccccc3)=NN2C(C)=O)cc1 (stereo unspecified) | 64.7 | 61.4

Now from value to compound, other results behind:

Row | IC50 [2] [µM] | SMILES | viability at 100 µM [1] [%]
13 | 56.3 | NC(=S)N/N=C\c1cn(-c2ccccc2)nc1-c1ccc(Cl)cc1 | 71.7
14 | 64.5 | S=C(N/N=C\c1cn(-c2ccccc2)nc1-c1ccc(Cl)cc1)Nc1ccccc1 | 61.7
15 | 60.7 | O=C1CSC(N/N=C\c2cn(-c3ccccc3)nc2-c2ccc(Cl)cc2)=N1 | 58.7
16 | 66.3 | O=C1CSC(N/N=C\c2cn(-c3ccccc3)nc2-c2ccc(Br)cc2)=N1 | 55.6
17 | 71.3 | COc1ccc(-c2nn(-c3ccccc3)cc2/C=N\NC2=NC(=O)CS2)cc1 | 59.7
18 | 62.3 | O=C1CS/C(=N/N=C\c2cn(-c3ccccc3)nc2-c2ccc(Cl)cc2)N1c1ccccc1 | 60.7

— ChEMBL document CHEMBL3351407, “Synthesis of novel pyrazole–thiadiazole hybrid as potential potent and selective cyclooxygenase-2 (COX-2) inhibitors” (Bioorg Med Chem Lett, 2014)
